Data on 1 compound can be found in patent US6444668B1 (Wyeth, priority 1999, dated 2002).

The target in one assay is T1, human PR (Homo sapiens, UniProt P06401).
T1 construct: expressed in transfected cells; host or cells: CV-1 cells (electroporation)
T1 sequence (P06401 1-933): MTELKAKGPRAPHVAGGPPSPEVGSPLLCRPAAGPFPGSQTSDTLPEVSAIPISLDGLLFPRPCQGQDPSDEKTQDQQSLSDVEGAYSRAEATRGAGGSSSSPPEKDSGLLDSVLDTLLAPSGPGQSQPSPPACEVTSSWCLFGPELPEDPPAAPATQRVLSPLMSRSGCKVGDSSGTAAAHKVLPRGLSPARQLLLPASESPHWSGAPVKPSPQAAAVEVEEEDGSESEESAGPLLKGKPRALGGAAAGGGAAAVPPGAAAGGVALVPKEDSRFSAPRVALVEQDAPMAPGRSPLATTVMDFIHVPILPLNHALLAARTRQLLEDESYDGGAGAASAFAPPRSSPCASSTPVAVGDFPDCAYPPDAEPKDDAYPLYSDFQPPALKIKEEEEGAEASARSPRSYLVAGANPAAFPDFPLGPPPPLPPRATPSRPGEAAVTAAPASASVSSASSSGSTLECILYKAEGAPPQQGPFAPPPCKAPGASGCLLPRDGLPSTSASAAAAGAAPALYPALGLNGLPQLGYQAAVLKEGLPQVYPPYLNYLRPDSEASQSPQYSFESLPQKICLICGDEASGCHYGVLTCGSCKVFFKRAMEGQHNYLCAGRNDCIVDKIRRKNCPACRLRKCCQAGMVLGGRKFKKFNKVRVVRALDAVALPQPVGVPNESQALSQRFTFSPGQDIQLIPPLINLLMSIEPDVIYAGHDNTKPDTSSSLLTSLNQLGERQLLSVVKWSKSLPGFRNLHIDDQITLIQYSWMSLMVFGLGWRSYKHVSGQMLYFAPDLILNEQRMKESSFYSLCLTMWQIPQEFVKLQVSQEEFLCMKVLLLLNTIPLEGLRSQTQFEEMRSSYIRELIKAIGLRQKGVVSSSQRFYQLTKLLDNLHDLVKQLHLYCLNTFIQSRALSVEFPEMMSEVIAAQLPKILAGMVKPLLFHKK
In words: PRE-luciferase assay in CV-1 cells. The conditions noted are these: PR antagonist; CV-1 cells co-transfected with human PR and PRE-luciferase; in the presence of 3 nM progesterone; read-out: hPR CV-1 IC50. The class given is cell-based. The protocol:
2. PRE-luciferase Assay in CV-1 to Cells
The object of this assay is to determine a compound's progestational or antiprogestational potency based on its effect on PRE-luciferase reporter activity in CV-1 cells co-transfected with human PR and PRE-luciferase plasmids. The materials methods used in the assay are as follows.
The growth medium was as follows: DMEM (BioWhittaker) containing 10% (v/v) fetal bovine serum (heat inactivated), 0.1 mM MEM non-essential amino acids, 100U/ml penicillin, […] streptomycin, and 2 mM GlutaMax (GIBCO, BRL). The experimental medium was as follows: DMEM (BioWhittaker), phenol red-free, containing 10% (v/v) charcoal-stripped fetal bovine serum (heat-inactivated), 0.1 mM MEM non-essential amino acids, 100U/ml penicillin […] streptomycin, and 2 mM GlutaMax (GIBCO, BRL).
b. Cell Culture, Transfection, Treatment, and Luciferase Assay
Stock CV-1 cells are maintained in growth medium Co-transfection is done using 1.2×10^7 cells, 5 mg pLEM plasmid with hPR-B inserted at Sph1 and BamH1 sites, 10 mg pGL3 plasmid with two PREs upstream of the luciferase sequence, and 50 mg sonicated calf thymus DNA as carrier DNA in […]. […] Luciferase activity is measured using luciferase reagents from Promega.
Each treatment consists of at least 4 replicates. […] EC50 or IC50 values are calculated from the retransformed values.

Assay [1] concerns rat uterine decidualization. The assay is described as follows: Rat decidualization assay. As to conditions: dose 3 mg/kg. The class given is in vivo. The protocol:
1. Rat Decidualization Assay
b. Animals (RACUC Protocol #5002)
The animals are treated once daily for seven days.
Uteri are removed and trimmed of fat.
Body weight: Mean total animal body weight (default-kg)
Decidual response: [(D-C)/C]x100%

On to `CC1(C)OC(=O)Nc2ccc(-c3coc(C#N)c3)cc21` [Compound 7, 4-(44-Dimethyl-2-oxo-1,4-dihydro-2H-benzo[d][1,3]oxazin-6-yl)-furan-2-carbonitrile], for which, on human PR, the 50% inhibitory concentration (IC50) stood at 30 nM. The “Decidualization, percentage inhibition at the dose specified” value in assay [1] came out at 75% @ 3.

As a reminder, the IC50 is the point on the concentration scale where inhibition reaches its midpoint.
